Reference: the supplement of paper PMC10331698
± gives the standard deviation of the averaged measurements.

Assays:
Assay in all cases: LOEC (log10 uM (lowest observed effect concentration))
[1] = compound: C=CC(=O)OCC(F)(F)C(F)(F)C(F)(F)C(F)(F)C(F)(F)C(F)(F)C(F)(F)F [1H,1H-Perfluorooctyl acrylate]
Experimental: (§1)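 BioMAP Diversity Plus panel in human primary cell co-cultures, 4 concentrations in duplicate blinded samples. Responses are log10 fold change versus DMSO control, processed with tcpl v2.1.0. A hit is called when responses at any concentration exceed the cutoff (the larger of 3*bmad or log10(1.2)); the lowest observed effect concentration (modl_ga, log10 uM) is reported for hits.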

[2] = compound: CCN(CCO)S(=O)(=O)C(F)(F)C(F)(F)C(F)(F)C(F)(F)C(F)(F)C(F)(F)C(F)(F)C(F)(F)F [N-Ethyl-N-(2-hydroxyethyl)perfluorooctanesulfonamide]
Experimental: as §1

[3] = compound: FC(F)(F)C(F)(F)C(F)(F)C(F)(F)C(F)(F)CCI [1-Iodo-1H,1H,2H,2H-perfluoroheptane]
Experimental: as §1

Perfluorodecanoic acid = compound: O=C(O)C(F)(F)C(F)(F)C(F)(F)C(F)(F)C(F)(F)C(F)(F)C(F)(F)C(F)(F)C(F)(F)F [Perfluorodecanoic acid]
Experimental: as §1

[4] = compound: OCCC(F)(F)C(F)(F)C(F)(F)C(F)(F)C(F)(F)C(F)(F)F [6:2 Fluorotelomer alcohol]
Experimental: as §1

[5] = compound: OCCCC(F)(F)C(F)(F)C(F)(F)C(F)(F)C(F)(F)C(F)(F)C(F)(F)F [7:3 Fluorotelomer alcohol]
Experimental: as §1

[6] = compound: O=C(O)C(F)(F)C(F)(F)C(F)(F)C(F)(F)C(F)(F)C(F)(F)C(F)(F)C(F)F [9-H-Perfluorononanoic acid]
Experimental: as §1

[7] = compound: C[N+](C)(C)CCCNS(=O)(=O)C(F)(F)C(F)(F)C(F)(F)C(F)(F)C(F)(F)C(F)(F)C(F)(F)C(F)(F)F [Perfluorooctanesulfonamido ammonium iodide]
Experimental: as §1

Perfluoro-1-iodohexane = compound: FC(F)(F)C(F)(F)C(F)(F)C(F)(F)C(F)(F)C(F)(F)I [Perfluoro-1-iodohexane]
Experimental: as §1

Perfluoroheptanoic acid = compound: O=C(O)C(F)(F)C(F)(F)C(F)(F)C(F)(F)C(F)(F)C(F)(F)F [Perfluoroheptanoic acid]
Experimental: as §1

[8] = compound: O=C(O)C(F)(F)C(F)(F)C(F)(F)OC(F)(C(F)(F)F)C(F)(F)F [Perfluoro-4-isopropoxybutanoic acid]
Experimental: as §1

[9] = compound: O=C(O)C(F)(F)OC(F)(F)C(F)(F)OC(F)(F)F [Perfluoro-3,6-dioxaheptanoic acid]
Experimental: as §1

[10] = compound: O=S(=O)(O)C(F)(F)C(F)(F)C(F)(F)C(F)(F)C(F)(F)C(F)(F)F [Perfluorohexanesulfonic acid]
Experimental: as §1

[11] = compound: OCC(F)(F)OC(F)(F)C(F)(F)OC(F)(F)CO [1H,1H,8H,8H-Perfluoro-3,6-dioxaoctane-1,8-diol]
Experimental: as §1

Test System	LOEC (log10 uM) [2]	LOEC (log10 uM) (Perfluorodecanoic acid)	LOEC (log10 uM) [5]	LOEC (log10 uM) [6]	LOEC (log10 uM) [7]	other results
hDFCGF Proliferation down	0.573 ± 0.39	1.3	0.845	–	–	LOEC (log10 uM) [1]: 1.78; LOEC (log10 uM) [3]: 1.3; LOEC (log10 uM) [4]: 1.78
BT PBMCCytotoxicity up	–	–	–	1.78	–	–
hDFCGF IP10 down	1.07 ± 0.32	1.07 ± 0.32	1.3	–	1.78	LOEC (log10 uM) [3]: 1.78
MyoF CollagenIII down	1.3	1.3	1.78	–	1.78	LOEC (log10 uM) (Perfluoro-1-iodohexane): 1.78
4H Pselectin up	–	–	–	1.78	–	–
hDFCGF VCAM1 down	1.54 ± 0.34	0.801 ± 0.71	1.3	–	1.78	LOEC (log10 uM) [3]: 1.78; LOEC (log10 uM) [4]: 1.78
IMphg IL8 up	1.78	–	–	1.78	–	LOEC (log10 uM) (Perfluoroheptanoic acid): 1.78; LOEC (log10 uM) [8]: 1.78; LOEC (log10 uM) [9]: 1.78
BT xIL17F down	1.3	–	1.3	–	1.3	LOEC (log10 uM) [1]: 1.3
MyoF MMP1 up	1.3	–	–	–	1.78	LOEC (log10 uM) (Perfluoro-1-iodohexane): 1.3
IMphg IL10 down	–	1.78	–	1.78	1.3	LOEC (log10 uM) [10]: 1.78
BT Bcell Proliferation up	–	1.78	–	1.78	–	–
BF4T tPA down	–	1.3	1.78	1.07 ± 0.32	1.3	–
MyoF SRB down	1.3	1.54 ± 0.34	1.78	–	1.78	LOEC (log10 uM) (Perfluoro-1-iodohexane): 1.3
IMphg CD40 down	–	1.78	1.78	–	1.54 ± 0.34	LOEC (log10 uM) [11]: 1.3
3C SRB down	1.07 ± 0.32	1.78	1.3	–	1.78	LOEC (log10 uM) [4]: 1.78
hDFCGF MCSF down	1.07 ± 0.32	1.3	1.3	–	–	LOEC (log10 uM) [3]: 1.78
BF4T Eotaxin3 down	–	1.3	1.31 ± 0.66	0.845	–	LOEC (log10 uM) [3]: 1.78
hDFCGF ITAC down	1.07 ± 0.32	1.3	1.3	1.54 ± 0.34	1.78	LOEC (log10 uM) [3]: 1.78; LOEC (log10 uM) [4]: 1.78

Test System	LOEC (log10 uM) [2]	LOEC (log10 uM) (Perfluorodecanoic acid)	LOEC (log10 uM) [5]	LOEC (log10 uM) [6]	LOEC (log10 uM) [7]	other results
3C Proliferation down	0.573 ± 0.39	1.78	1.07 ± 0.32	–	1.78	LOEC (log10 uM) [1]: 1.78; LOEC (log10 uM) [3]: 1.78; LOEC (log10 uM) [4]: 1.78
MyoF VCAM1 down	1.3	1.54 ± 0.34	1.78	–	1.78	LOEC (log10 uM) (Perfluoro-1-iodohexane): 1.54 ± 0.34
SAg Proliferation down	1.3	1.78	1.3	–	1.78	LOEC (log10 uM) [4]: 1.78
LPS IL8 up	–	–	–	1.54 ± 0.34	–	LOEC (log10 uM) [8]: 1.54 ± 0.34
MyoF PAI1 down	–	1.78	1.78	–	1.78	LOEC (log10 uM) (Perfluoro-1-iodohexane): 1.78
hDFCGF SRB up	–	–	–	1.54 ± 0.34	–	–
MyoF ACTA1 down	1.3	1.78	1.78	–	1.3	LOEC (log10 uM) (Perfluoro-1-iodohexane): 1.3
BF4T MCP1 down	–	1.3	1.54 ± 0.34	0.573 ± 0.39	–	–
hDFCGF PAI1 down	1.54 ± 0.34	1.54 ± 0.34	1.3	–	1.78	LOEC (log10 uM) [4]: 1.78
BF4T ICAM1 down	–	1.3	1.78	1.07 ± 0.32	–	–
BE3C IP10 down	1.3	0.845	1.78	1.78	1.78	–
BF4T PAI1 down	–	1.3	1.78	0.845	–	–
BE3C HLADR down	1.3	1.3	1.78	1.07 ± 0.32	1.78	–
hDFCGF MMP1 down	1.78	1.3	1.3	1.3	–	–
CASM3C Proliferation down	1.3	–	1.3	–	–	LOEC (log10 uM) [3]: 1.54 ± 0.34
MyoF CollagenI down	1.3	1.3	1.78	–	1.78	LOEC (log10 uM) (Perfluoro-1-iodohexane): 1.78
BE3C MMP1 up	0.845	–	–	1.78	1.78	LOEC (log10 uM) [3]: 1.54 ± 0.34; LOEC (log10 uM) [10]: 1.78
